Test results as given in US8163724B2, “Glucocorticosteroids, processes for their preparation, pharmaceutical compositions containing them and their use in therapy” (AstraZeneca AB, priority 2007, dated 2012).

Biological target: T1, recombinant human GR (Homo sapiens, UniProt P04150)
T1 construct: purchased Panvera/Invitrogen P2812 (kit P2893)
T1 sequence (P04150 1-777): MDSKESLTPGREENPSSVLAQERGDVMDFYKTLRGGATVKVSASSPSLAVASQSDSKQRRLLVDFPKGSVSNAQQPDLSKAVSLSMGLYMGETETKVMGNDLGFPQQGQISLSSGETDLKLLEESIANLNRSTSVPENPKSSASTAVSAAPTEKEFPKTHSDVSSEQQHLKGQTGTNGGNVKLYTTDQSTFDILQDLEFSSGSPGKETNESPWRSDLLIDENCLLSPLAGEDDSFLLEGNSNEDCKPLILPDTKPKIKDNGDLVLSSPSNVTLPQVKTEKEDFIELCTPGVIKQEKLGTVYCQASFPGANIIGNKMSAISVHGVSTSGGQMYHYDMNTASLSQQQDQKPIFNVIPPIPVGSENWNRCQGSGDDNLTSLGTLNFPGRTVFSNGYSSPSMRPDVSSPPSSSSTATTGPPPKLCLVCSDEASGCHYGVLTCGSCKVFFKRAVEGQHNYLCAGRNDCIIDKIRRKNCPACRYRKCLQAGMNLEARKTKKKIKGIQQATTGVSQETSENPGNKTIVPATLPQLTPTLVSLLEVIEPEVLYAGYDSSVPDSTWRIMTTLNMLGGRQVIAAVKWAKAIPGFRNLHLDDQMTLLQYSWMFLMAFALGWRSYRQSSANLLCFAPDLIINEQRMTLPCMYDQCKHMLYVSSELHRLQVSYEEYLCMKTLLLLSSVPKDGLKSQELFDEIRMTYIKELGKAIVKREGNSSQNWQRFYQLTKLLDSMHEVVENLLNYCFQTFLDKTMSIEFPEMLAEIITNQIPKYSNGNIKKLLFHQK
Test: Human Glucocorticoid Receptor (GR) Assay (fluorescence polarization, Panvera/Invitrogen kit)
Format: binding
Details: fluorescence polarization; GS Red tracer; 2 hours at room temperature; 100% control 10 μM Dexamethasone; read-out: Inhibition of GR binding, IC50
Outline: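 Fluorescence polarization competition with recombinant GR and GS Red fluorescent ligand plus stabilizing peptide and DTT in potassium phosphate/sodium molybdate/EDTA buffer with DMSO. Incubated 2 hours at room temperature in the dark; 0% control DMSO, 100% control 10 μM dexamethasone.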

Compound	IC50 [nM]
CC(=O)CSC(=O)[C@@]1(OC(=O)c2ccco2)CC[C@H]2[C@@H]3CCC4=Cc5c(cnn5-c5ccc(F)cc5)C[C@]4(C)[C@H]3[C@@H](O)C[C@@]21C [Example 89, (1R,3aS,3bS,10aR,10bS,11S,12aS)-7-(4-Fluorophenyl)-11-hydroxy-10a,12a-dimethyl-1-{[(2-oxopropyl)sulfanyl]carbonyl}-1,2,3,3a,3b,4,5,7,10,10a,10b,11,12,12a-tetradecahydrocyclopenta[5,6]naphtho[1,2-f]indazol-1-yl furan-2-carboxylate]	6.9
Cc1nnsc1C(=O)O[C@]1(C(=O)SCF)CC[C@H]2[C@@H]3CCC4=Cc5c(cnn5-c5ccc(F)cc5)C[C@]4(C)[C@H]3[C@@H](O)C[C@@]21C [Example 4, (1R,3aS,3bS,10aR,10bS,11S,12aS)-1-{[(Fluoromethyl)thio]carbonyl}-7-(4-fluorophenyl)-11-hydroxy-10a,12a-dimethyl-1,2,3,3a,3b,4,5,7,10,10a,10b,11,12,12a-tetradecahydrocyclopenta[5,6]naphtho[1,2-f]indazol-1-yl 4-methyl-1,2,3-thiadiazole-5-carboxylate]	5.9
C[C@]12Cc3cnn(-c4cc(F)cc(F)c4)c3C=C1CC[C@@H]1[C@@H]2[C@@H](O)C[C@@]2(C)[C@H]1CC[C@]2(OC(=O)c1ccco1)C(=O)SCC#N [Example 102, (1R,3aS,3bS,10aR,10bS,11S,12aS)-1-{[(Cyanomethyl)thio]carbonyl}-7-(3,5-difluorophenyl)-11-hydroxy-10a,12a-dimethyl-1,2,3,3a,3b,4,5,7,10,10a,10b,11,12,12a-tetradecahydrocyclopenta[5,6]naphtho[1,2-f]indazol-1-yl furan-2-carboxylate]	8.2
C[C@]12Cc3cnn(-c4ccc(F)cc4)c3C=C1CC[C@H]1[C@@H]3CC[C@](OC(=O)c4ccco4)(C(=O)SCC#N)[C@@]3(C)C[C@H](O)[C@@]12F [Example 193, (1R,3aS,3bS,10aS,10bR,11S,12aS)-1-{[(Cyanomethyl)sulfanyl]carbonyl}-10b-fluoro-7-(4-fluorophenyl)-11-hydroxy-10a,12a-dimethyl-1,2,3,3a,3b,4,5,7,10,10a,11,12,12a-tetradecahydrocyclopenta[5,6]naphtho[1,2-f]indazol-1-yl furan-2-carboxylate]	3.3
C[C@]12Cc3cnn(-c4ccc(F)cc4)c3C=C1CC[C@@H]1[C@@H]2[C@@H](O)C[C@@]2(C)[C@H]1CC[C@]2(OC(=O)C1CC1)C(=O)SCF [Example 38, (1R,3aS,3bS,10aR,10bS,11S,12aS)-1-{[(Fluoromethyl)thio]carbonyl}-7-(4-fluoro-phenyl)-11-hydroxy-10a,12a-dimethyl-1,2,3,3a,3b,4,5,7,10,10a,10b,11,12,12a-tetradecahydrocyclopenta[5,6]naphtho[1,2-f]indazol-1-yl cyclopropanecarboxylate]	5.7
CCSC(=O)[C@@]1(OC(=O)c2snnc2C)CC[C@H]2[C@@H]3CCC4=Cc5c(cnn5-c5ccc(F)cc5)C[C@]4(C)[C@H]3[C@@H](O)C[C@@]21C [Example 5, (1R,3aS,3bS,10aR,10bS,11S,12aS)-1-[(Ethylthio)carbonyl]-7-(4-fluorophenyl)-11-hydroxy-10a,12a-dimethyl-1,2,3,3a,3b,4,5,7,10,10a,10b,11,12,12a-tetradecahydrocyclopenta[5,6]naphtho[1,2-f]indazol-1-yl 4-methyl-1,2,3-thiadiazole-5-carboxylate]	15
C[C@]12Cc3cnn(-c4ccc(F)cc4)c3C=C1CC[C@@H]1[C@@H]2[C@@H](O)C[C@@]2(C)[C@H]1CC[C@]2(OC(=O)C1(C#N)CC1)C(=O)SCC#N [Example 146, (1R,3aS,3bS,10aR,10bS,11S,12aS)-1-{[(Cyanomethyl)sulfanyl]carbonyl}-7-(4-fluorophenyl)-11-hydroxy-10a,12a-dimethyl-1,2,3,3a,3b,4,5,7,10,10a,10b,11,12,12a-tetradecahydrocyclopenta[5,6]naphtho[1,2-f]indazol-1-yl 1-cyanocyclopropane Carboxylate]	3.4
Cn1cccc1C(=O)O[C@]1(C(=O)SCF)CC[C@H]2[C@@H]3CCC4=Cc5c(cnn5-c5ccc(F)cc5)C[C@]4(C)[C@H]3[C@@H](O)C[C@@]21C [Example 177, (1R,3aS,3bS,10aR,10bS,11S,12aS)-1-{[(Fluoromethyl)thio]carbonyl}-7-(4-fluorophenyl)-11-hydroxy-10a,12a-dimethyl-1,2,3,3a,3b,4,5,7,10,10a,10b,11,12,12a-tetradecahydrocyclopenta[5,6]naphtho[1,2-f]indazol-1-yl 1-methyl-1H-pyrrole-2-carboxylate]	7.5
COCC(=O)O[C@]1(C(=O)SCCO)CC[C@H]2[C@@H]3CCC4=Cc5c(cnn5-c5ccc(F)nc5)C[C@]4(C)[C@H]3[C@@H](O)C[C@@]21C [Example 159, (1R,3aS,3bS,10aR,10bS,11S,12aS)-7-(6-Fluoropyridin-3-yl)-11-hydroxy-1-{[(2-hydroxyethyl)sulfanyl]carbonyl}-10a,12a-dimethyl-1,2,3,3a,3b,4,5,7,10,10b,11,12,12a-tetradecahydrocyclopenta[5,6]naphtho[1,2-f]indazol-1-yl methoxyacetate]	3.6
C=C(CSC(=O)[C@@]1(OC(=O)c2ccco2)CC[C@H]2[C@@H]3CCC4=Cc5c(cnn5-c5ccc(F)cc5)C[C@]4(C)[C@H]3[C@@H](O)C[C@@]21C)OCOC [Example 88, (1R,3aS,3bS,10aR,10bS,11S,12aS)-7-(4-fluorophenyl)-11-hydroxy-1-({[2-(methoxymethoxy)prop-2-en-1-yl]sulfanyl}carbonyl)-10a,12a-dimethyl-1,2,3,3a,3b,4,5,7,10,10a,10b,11,12,12a-tetradecahydrocyclopenta[5,6]naphtho[1,2-f]indazol-1-yl furan-2-carboxylate]	13
C=Cc1cccc(-n2ncc3c2C=C2CC[C@@H]4[C@H]([C@@H](O)C[C@@]5(C)[C@H]4CC[C@]5(OC(=O)c4ccco4)C(=O)SCF)[C@@]2(C)C3)c1 [Example 72, (1R,10aR,11S,12aS)-7-(3-Ethenylphenyl)-1-{[(fluoromethyl)thio]carbonyl}-11-hydroxy-10a,12a-dimethyl-1,2,3,3a,3b,4,5,7,10a,10b,11,12,12a-tetradecahydrocyclopenta[5,6]naphtho[1,2-f]indazol-1-yl furan-2-carboxylate]	17
CCC(=O)O[C@]1(C(=O)SCC#N)CC[C@H]2[C@@H]3CCC4=Cc5c(cnn5-c5ccc(F)cc5)C[C@]4(C)[C@@]3(F)[C@@H](O)C[C@@]21C [Example 199, (1R,3aS,3bS,10aS,10bR,11S,12aS)-1-{[(Cyanomethyl)sulfanyl]carbonyl}-10b-fluoro-7-(4-fluorophenyl)-11-hydroxy-10a,12a-dimethyl-1,2,3,3a,3b,4,5,7,10,10a,10b,11,12,12a-tetradecahydrocyclopenta[5,6]naphtho[1,2-f]indazol-1-yl propanoate]	4.6
